{"source": "patent US12577587B2", "about": "(priority 2009, dated 2026)", "assay_type_in_all_cases": "cell-based, human", "key": {"KBM7 cells [1]": {"test_system": "KBM7 cells"}, "KBM7 cells [2]": {"test_system": "KBM7 cells", "remark": "listed apart in the source"}, "KBM7 cells [3]": {"test_system": "KBM7 cells", "remark": "listed apart in the source"}}, "note": "Entries after “also recorded” stand apart in the source; their conditions may differ.", "data": [{"compound": "TRAIL", "values": [{"measurement": "Cell viability", "setting": "KBM7 cells [1]", "value": "decreased dramatically"}]}, {"compound": "polybrene", "values": [{"measurement": "infection efficiency", "setting": "KBM7 cells [2]", "value": 33, "unit": "%"}]}, {"compound": "protamine sulphate", "values": [{"measurement": "infection efficiency", "setting": "KBM7 cells [2]", "value": 44, "unit": "%"}]}, {"compound": "Cc1ccc(NC(=O)c2ccc(CN3CCN(C)CC3)cc2)cc1Nc1nccc(-c2cccnc2)n1", "note": "[Gleevec, imatinib]", "values": [{"measurement": "sensitivity to Gleevec (apoptosis)", "setting": "KBM7 cells [3]", "value": "very sensitive; also recorded: sensitive"}]}]}
